Test [1] has as its system K+ channel of rabbit mesenteric artery (RMA). Description: K+ channel antagonism: inhibition of pinacidil-induced relaxation of norepinephrine-contracted rabbit mesenteric artery (RMA) rings. The format is cell-based. The procedure:
The results for potassium channel blocking were obtained by using isolated rabbit mesenteric artery (RMA) procedures. Norepinephrine (5 μM) was used to contract the RMA rings twice, with an hour separating the two contractions. During this hour the tissues equilibrated in physiological salt solution at a resting tension of 1 gram. Upon the plateau of the second contraction 1 μM pinacidil was added to all tissues and the resulting relaxation time course was studied for thirty minutes. […] By studying the ability of the test compounds to inhibit this pinacidil-induced relaxation, the degree of potassium antagonism could be determined. The compounds were applied to the tissues for one hour between the two contractions and the pinacidil-induced relaxation was studied in the continuing presence of the compounds. Thus, the total time of pretreatment with the test compound was 75 minutes before the addition of pinacidil. […]
Data for K^+ channel antagonist activity on rabbit mesenteric artery (RMA) and natriuretic efficacy after […] (IP) administration to rats are collected in Tables III and IV. It was known, for example, that a compound where both methyl groups on the benzylic carbon of Example 9 had been removed was a weak PCO rather than a K^+ channel antagonist. Similarly a compound in which the phenyl was attached directly to the guanidine nitrogen was also a K^+ channel agonist.
^a This is a measure of a compound's ability to inhibit the relaxatio
of norepinephrine (5 μM) contracted rabbit mesenteric artery rings by
pinacidil (1 μM). It is expressed as percent inhibition (mean ± sem
at an inhibitor concentration of 5 μM. Compounds with 65% or g greater
inhibition at 5 μM are considered to be active, with 2065\% inhibition

Test [2] can be described thus: Diuretic screen: 5 h net natriuretic efficacy (urinary Na+ excretion) in rats. Format: in vivo, female Harlan Sprague-Dawley rats.
The next test concerns K+ channel. As to conditions: 1 μM; norepinephrine-contracted RMA rings; cited from earlier work.

Like-named read-outs stand apart in the source and are kept apart here.

With `CC(N/C(=N\C#N)Nc1ccncc1)C(C)(C)C` (stereo not shown) [Pinacidil], the inhibition at 5 µM in test [1] (Oryctolagus cuniculus, 0.25 h, Table III, inhibition of relaxation by pinacidil 1 μM at 15 min, mean ± sem (number of rings), >=65% considered active, <20% inactive, read-out: RMA K+ Channel Antagonism % I at 5 μM) came out at 0%. Moreover, the “diuretic response (in words)” value in test [2] (5 mg/kg oral dosage) is recorded as “Antidiuresis”. Also, the “5 h Net Natriuretic Efficacy” value in test [2] (Table III, 5 mg/kg oral dosage (footnote j)) is reported as -60 μEq Na+/mg/kg. The “K+ channel dependent vasodilation (in words)” value with K+ channel is on record as “maximal K^+ channel dependent vasodilation”.

In the case of `CC(NC(=NC#N)Nc1ccc(N)nc1)c1ccccc1` (stereo not shown) [Compound 36], the “RMA K+ Channel Antagonism % I (conc. μM)” value in test [1] (Table IV, concentration not printed (empty parentheses)) was 66.5%. As to `CCC(NC(=NC#N)Nc1cccnc1)c1cccc(F)c1` (stereo not shown) [Compound 38], the inhibition at 0.5 µM in test [1] (Oryctolagus cuniculus, Table IV, 0.5 μM, lowest concentration giving >20% inhibition or lowest tested, read-out: RMA K+ Channel Antagonism % I (conc. μM)) was determined as 68.6%. `CC(NC(=NC#N)Nc1cccnc1)c1cccc(F)c1` (stereo not shown) [Compound 50]: the inhibition at 5 µM in test [1] (Oryctolagus cuniculus, Table IV, lowest concentration giving >20% inhibition or lowest tested, read-out: RMA K+ Channel Antagonism % I (conc. μM)) came to 94.6%.

These data come from US5567722A, “Cyanoguanidines as K-channel blockers” (The Upjohn Company, priority 1995, dated 1996).
